Reference: US8951999B2, “Compounds” (Orexo AB, priority 2009, dated 2015)
pIC50: −log10 of the molar value.

biological target: T1, recombinant human mPGES-1 (Homo sapiens, UniProt O14684); assay: Assay B: mPGES-1 enzyme assay (modified); assay type: biochemical; conditions: biological assay B (all other compounds); PGH2 final conc. 2 μM, HTRF; read-out: mPGES-1 inhibitory effect IC50
T1 sequence (O14684 1-152): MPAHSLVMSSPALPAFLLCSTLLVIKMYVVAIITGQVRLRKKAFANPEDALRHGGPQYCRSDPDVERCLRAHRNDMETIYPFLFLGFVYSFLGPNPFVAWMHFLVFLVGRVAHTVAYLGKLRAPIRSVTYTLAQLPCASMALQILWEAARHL
Method: Assay B: mPGES-1 Enzyme Assay (Modified)
The aim of this assay is to determine the affinity of a test compound for the mPGES-1 enzyme.
47 μl of recombinant human mPGES-1 (˜0.5 μg protein/well) containing microsomal suspension in a buffer containing GSH, (2.5 mmol/L L-Glutathione reduced, dissolved in 0.1 mol/L Phosphat Buffer pH 7.4) is dispensed in a 384-well plate and thereafter 1 μl of the test compound(s) is/are added and incubated for 25 minutes at room temperature. The enzyme reaction is started by the addition of 2 ul PGH2 (final conc. 2 μM) dissolved in water-free Diglyme. After 60 seconds the reaction is terminated by addition of a stop solution containing FeCl2 (10 μL 0.074 mol/l FeCl2). The samples are diluted between 1:25 in PBS (Phosphate Buffered Saline). 10 μl of the diluted samples are transferred to 384-well low volume plate. In order to quantify the amount of PGE2 that has been formed, a homogenous time resolved fluorescent (HTRF) detecting of PGE2 has been performed using a commercially available kit from Cisbio according to the manufactures recommendation. This HTRF-based assay has been described in detail (see: Goedken et al., J Biomol Screen, 2008, 13(7), 619-625). Briefly, the diluted samples are mixed with […] PGE2-d2 conjugate and 5 μl anti-PGE2 cryptate conjugate. After an incubation period of the plates over night, the fluorescence is measured by the use of an appropriate microplate reader.
The fluorescence of Europium cryptate (maxex=307 nm, maxem=620 nm) and d2-PGE2 (maxex=620 nm, maxem=665 nm) are measured.
The extent of the specific HTRF is measured as a ratio of the emission intensity at 665 nm vs. that at 620 nm at an excitation pulse of 320 nm. The quantification plate contains also wells with different concentrations of PGE2 as calibration curve for the calculation of the PGE2 concentrations from the HTRF ratio values.
From all mPGES enzyme assay the background is subtracted and the IC50 is calculated over a nonlinear regression with conventional software.

pIC50 | Structure (SMILES)
7.96 | COCCOc1ccc(NC(=O)c2cc(CNC(=O)C3(C(F)(F)F)CC3)ccc2Cl)cc1C(=O)N[C@H]1CC[C@H](C(F)(F)F)CC1 [Example 53, N-[4-(2-Methoxy)ethoxy-3-(trans-4-trifluoromethylcyclohexyl)aminocarbonyl-phenyl]-2-chloro-5-[1-(trifluoromethyl)cyclopropyl]carbonylaminomethyl-benzamide]
6.89 | CC(C)(C)C(=O)NCc1ccc(Cl)c(C(=O)Nc2ccc(N[C@H]3CC[C@H](C(F)(F)F)CC3)c(C(=O)N[C@H]3CC[C@H](C(F)(F)F)CC3)c2)c1 [Example 56, N-[4-(trans-4-trifluoromethylcyclohexyl)amino-3-[trans-(4-trifluoromethylcyclohexyl)amino]carbonyl-phenyl]-2-chloro-5-(tert-butylcarbonylamino)methyl-benzamide]
8.70 | CC(C)(C(=O)NCc1ccc(Cl)c(C(=O)Nc2ccc(N3CCC(F)CC3)c(C(=O)Nc3ccc(F)c(Cl)c3)c2)c1F)C(F)(F)F [Example 57, N-[4-(4-Fluoro-piperidin-1-yl)-3-(3-chloro-4-fluorophenyl)aminocarbonyl-phenyl]-2-fluoro-6-chloro-3-[(2,2,2-trifluoro-1,1-dimethyl-ethyl)carbonylamino]methyl-benzamide]
8.52 | CC(C)(C)C(=O)NCc1ccc(Cl)c(C(=O)Nc2ccc(N3CCC(C(F)(F)F)CC3)c(C(=O)N[C@H]3CC[C@H](C(F)(F)F)CC3)c2)c1 [Example 58, N-[4-(4-Trifluoromethyl-piperidin-1-yl)-3-(trans-4-trifluoromethylcyclohexyl)aminocarbonyl-phenyl]-2-chloro-5-(tert-butylcarbonylamino)methyl-benzamide]
8.30 | CC(C)(C(=O)NCc1ccc(Cl)c(C(=O)Nc2ccc(N3CCC(C(F)(F)F)CC3)c(C(=O)NCC3CC3)c2)c1Cl)C(F)(F)F [Example 59, N-[4-(4-Trifluoromethyl-piperidin-1-yl)-3-(cyclopropylmethyl)aminocarbonyl-phenyl]-2,6-dichloro-3-[(2,2,2-trifluoro-1,1-dimethyl-ethyl)carbonylamino]methyl-benzamide]
7.59 | CC(C)(C)C(=O)NCc1ccc(Cl)c(C(=O)Nc2ccc(N3CC(F)(F)C3)c(C(=O)Nc3ccc(Br)cc3)c2)c1 [Example 60, N-[4-(3,3-Difluoro-azetidin-1-yl)-3-(4-bromphenyl)aminocarbonyl-phenyl]-2-chloro-5-(tert-butylcarbonylamino)methyl-benzamide]
8.30 | CC(C)(C)C(=O)NCc1ccc(Cl)c(C(=O)Nc2ccc(N3CCC(F)CC3)c(C(=O)Nc3ccc(Br)cc3)c2)c1Cl [Example 61]
8.30 | CC(C)(C)C(=O)NCc1ccc(Cl)c(C(=O)Nc2ccc(N3CCC(C(F)(F)F)CC3)c(C(=O)NCC3CC3)c2)c1 [Example 63]
8.40 | COCCOc1ccc(NC(=O)c2cc(CNC(=O)C(C)(C)C(F)(F)F)ccc2Cl)cc1C(=O)N[C@H]1CC[C@H](C(F)(F)F)CC1 [Example 64]
8.40 | COCCOc1ccc(NC(=O)c2cc(CNC(=O)C(C)C(F)(F)F)ccc2Cl)cc1C(=O)Nc1ccc(Br)cc1 (stereo not drawn) [Example 65, N-[4-(2-Methoxy)ethoxy-3-(4-bromphenyl)aminocarbonyl-phenyl]-2-chloro-5-(2,2,2-trifluoro-1-methyl-ethyl)carbonylaminomethyl-benzamide]
8.30 | CC(C)(C)C(=O)NCc1ccc(Cl)c(C(=O)Nc2ccc(OC3CCOC3)c(C(=O)Nc3ccc(Br)cc3)c2)c1 (stereo not drawn) [Example 66, N-[4-(Tetrahydrofuran-3-yloxy)-3-(4-bromophenyl)aminocarbonyl-phenyl]-2-chloro-5-(tert-butyl-carbonylaminomethyl)-benzamide]
8.30 | CC(C)(C(=O)NCc1ccc(Cl)c(C(=O)Nc2ccc(OC3CCOC3)c(C(=O)N[C@H]3CC[C@H](C(F)(F)F)CC3)c2)c1)C(F)(F)F (stereo partly drawn) [Example 67]
8.05 | O=C(Nc1ccc(OC2CCOC2)c(C(=O)N[C@H]2CC[C@H](C(F)(F)F)CC2)c1)c1cc(CNC(=O)C2(C(F)(F)F)CC2)ccc1Cl (stereo partly drawn) [Example 68]
8.40 | CC(C)(C(=O)NCc1ccc(Cl)c(C(=O)Nc2ccc(OC3CCOC3)c(C(=O)Nc3ccc(Br)cc3)c2)c1)C(F)(F)F (stereo not drawn) [Example 69]
8.30 | COCCOc1ccc(NC(=O)c2cc(CNC(=O)C(C)(C)C)ccc2Cl)cc1C(=O)Nc1ccc(Br)cc1 [Example 70]
8.00 | COCCOc1ccc(NC(=O)c2cc(CNC(=O)C(C)(C)C)ccc2Cl)cc1C(=O)N[C@H]1CC[C@H](C(F)(F)F)CC1 [Example 71]
8.40 | COCCOc1ccc(NC(=O)c2cc(CNC(=O)C(C)(C)C(F)(F)F)ccc2Cl)cc1C(=O)Nc1ccc(Br)cc1 [Example 72]
7.33 | CC(C)(C)C(=O)NCc1ccc(F)c(C(=O)Nc2cnc(OCC(F)F)c(C(=O)Nc3ccc(Br)cc3)c2)c1F [Example 74]

pIC50 | Structure (SMILES)
8.22 | CC(C)(C)C(=O)NCc1ccc(Cl)c(C(=O)Nc2cnc(OCC(F)F)c(C(=O)Nc3cc(F)cc(Cl)c3)c2)c1Cl [Example 75, N-[2-(2,2-Difluoroethoxy)-3-(3-chloro-5-fluorophenyl)aminocarbonyl-pyridin-5-yl]-2,6-dichloro-5-(tert-butylcarbonylamino)methyl-benzamide]
7.92 | CC(C)(C)C(=O)NCc1ccc(Cl)c(C(=O)Nc2cnc(OCC(F)F)c(C(=O)Nc3ccc(Cl)c(F)c3)c2)c1Cl [Example 76]
8.70 | CC(C)(C(=O)NCc1ccc(Cl)c(C(=O)Nc2ccc(OCC(F)F)c(C(=O)Nc3ccc(F)c(Cl)c3)c2)c1F)C(F)(F)F [Example 77, N-[4-(2,2-Difluoroethyl)oxy-3-(4-fluoro-3-chloro-phenyl)aminocarbonyl-phenyl]-6-chloro-2-fluoro-3-[(2,2,2-trifluoro-1,1-dimethyl-ethyl)carbonylamino]methyl-benzamide]
8.70 | CC(C)(C)NC(=O)c1cc(NC(=O)c2c(Cl)ccc(CNC(=O)C(C)(C)C(F)(F)F)c2F)ccc1OCC(F)F [Example 78]
8.30 | CC(C)(C(=O)NCc1ccc(Cl)c(C(=O)Nc2ccc(OCC(F)F)c(C(=O)Nc3c(F)ccc(F)c3F)c2)c1F)C(F)(F)F [Example 79]
8.00 | O=C(Nc1ccc(OCC(F)F)c(C(=O)Nc2ccc(Br)cc2)c1)c1cc(CNC(=O)C(F)(F)F)ccc1Cl [Example 80]
8.70 | CC(C)(C(=O)NCc1ccc(Cl)c(C(=O)Nc2ccc(OCC(F)F)c(C(=O)Nc3ccc(Br)cc3)c2)c1)C(F)(F)F [Example 81]
8.10 | CC(C)(C(=O)NCc1ccc(Cl)c(C(=O)Nc2ccc(OCC(F)F)c(C(=O)N[C@H]3CC[C@H](C(F)(F)F)CC3)c2)c1)C(F)(F)F [Example 82, N-[4-(2,2-difluoroethyl)oxy-3-(trans-4-trifluoromethylcyclohexyl)aminocarbonyl-phenyl]-2-chloro-5-[(2,2,2-trifluoro-1,1-dimethyl-ethyl)carbonylamino}methyl-benzamide]
8.15 | CC(C)(C(=O)NCc1ccc(Cl)c(C(=O)Nc2ccc(OCC(F)F)c(C(=O)Nc3ncc(Cl)s3)c2)c1)C(F)(F)F [Example 83]
8.22 | CC(C)(C(=O)NCc1ccc(Cl)c(C(=O)Nc2ccc(OCC(F)F)c(C(=O)NCc3ccccc3C(F)(F)F)c2)c1)C(F)(F)F [Example 84]
8.22 | CC(C)(C(=O)NCc1ccc(Cl)c(C(=O)Nc2ccc(OCC(F)F)c(C(=O)NC3CCc4ccccc4C3)c2)c1)C(F)(F)F (stereo not drawn) [Example 85]
8.30 | Cc1ccc(Cl)cc1NC(=O)c1cc(NC(=O)c2cc(CNC(=O)C(C)(C)C(F)(F)F)ccc2Cl)ccc1OCC(F)F [Example 86]
8.30 | CC(C)(C)C1CCC(NC(=O)c2cc(NC(=O)c3cc(CNC(=O)C(C)(C)C(F)(F)F)ccc3Cl)ccc2OCC(F)F)CC1 (stereo not drawn) [Example 87]
8.05 | COCC1(CNC(=O)c2cc(NC(=O)c3cc(CNC(=O)C(C)(C)C(F)(F)F)ccc3Cl)ccc2OCC(F)F)CCCC1 [Example 88]
8.40 | CC(C)(C(=O)NCc1ccc(Cl)c(C(=O)Nc2ccc(OCC(F)F)c(C(=O)NCc3ccc(F)cc3C(F)(F)F)c2)c1)C(F)(F)F [Example 89]
8.05 | CC(C)(C(=O)NCc1ccc(Cl)c(C(=O)Nc2ccc(OCC(F)F)c(C(=O)NC3CCSCC3)c2)c1)C(F)(F)F [Example 90]
8.22 | COc1cc(Cl)ccc1NC(=O)c1cc(NC(=O)c2cc(CNC(=O)C(C)(C)C(F)(F)F)ccc2Cl)ccc1OCC(F)F [Example 91]
8.22 | Cc1cc(NC(=O)c2cc(NC(=O)c3cc(CNC(=O)C(C)(C)C(F)(F)F)ccc3Cl)ccc2OCC(F)F)ccc1Cl [Example 92]
